{
  "source": "patent US10251874B2",
  "about": "“Crystalline forms of a JAK inhibitor compound” (THERAVANCE BIOPHARMA R&D IP, LLC, priority 2017, dated 2019)",
  "key": {"Tyk2": {"biological_target": "T1, Tyk2 (Homo sapiens, UniProt P29597)", "T1 construct": "GST; purchased Life Technologies", "T1 sequence (P29597 whole entry)": "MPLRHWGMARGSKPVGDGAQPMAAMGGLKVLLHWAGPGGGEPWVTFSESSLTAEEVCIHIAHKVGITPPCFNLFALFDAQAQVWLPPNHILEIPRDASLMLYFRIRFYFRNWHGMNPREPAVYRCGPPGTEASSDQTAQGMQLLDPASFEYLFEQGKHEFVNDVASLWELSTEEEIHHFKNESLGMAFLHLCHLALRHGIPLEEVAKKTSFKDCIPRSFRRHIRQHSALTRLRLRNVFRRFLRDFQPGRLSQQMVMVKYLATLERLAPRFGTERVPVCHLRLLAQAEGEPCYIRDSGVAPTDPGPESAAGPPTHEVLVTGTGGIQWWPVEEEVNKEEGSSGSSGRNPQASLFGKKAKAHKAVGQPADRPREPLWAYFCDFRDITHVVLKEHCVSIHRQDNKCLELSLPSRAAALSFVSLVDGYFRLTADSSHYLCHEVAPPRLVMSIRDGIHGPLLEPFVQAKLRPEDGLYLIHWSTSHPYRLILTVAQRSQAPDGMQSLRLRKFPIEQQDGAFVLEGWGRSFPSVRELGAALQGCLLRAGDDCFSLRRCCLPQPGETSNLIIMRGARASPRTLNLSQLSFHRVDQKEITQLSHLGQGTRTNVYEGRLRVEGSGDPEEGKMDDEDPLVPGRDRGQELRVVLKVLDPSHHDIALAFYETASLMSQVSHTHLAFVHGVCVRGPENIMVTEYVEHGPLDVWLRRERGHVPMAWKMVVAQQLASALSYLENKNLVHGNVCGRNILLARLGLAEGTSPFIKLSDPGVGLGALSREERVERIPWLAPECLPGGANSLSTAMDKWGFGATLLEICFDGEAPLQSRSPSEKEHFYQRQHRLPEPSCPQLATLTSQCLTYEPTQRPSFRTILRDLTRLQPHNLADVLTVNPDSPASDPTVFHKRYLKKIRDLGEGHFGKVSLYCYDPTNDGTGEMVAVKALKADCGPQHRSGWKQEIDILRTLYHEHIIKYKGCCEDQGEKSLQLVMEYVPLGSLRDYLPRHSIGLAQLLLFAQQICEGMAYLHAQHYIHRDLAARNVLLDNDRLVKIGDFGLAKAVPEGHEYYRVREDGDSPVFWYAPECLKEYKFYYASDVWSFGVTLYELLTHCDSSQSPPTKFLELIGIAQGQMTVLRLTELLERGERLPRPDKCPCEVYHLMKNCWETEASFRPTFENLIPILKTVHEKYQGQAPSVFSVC", "test": "Assay 1: LanthaScreen biochemical JAK kinase assay, Tyk2", "conditions": "converted from pIC50 by Cheng-Prusoff; ATP at Km 10 μM; read-out: Tyk2 pKi (converted)", "description": "A panel of four LanthaScreen JAK biochemical assays (JAK1, 2, 3 and Tyk2) were carried in a common kinase reaction buffer (50 mM HEPES, pH 7.5, 0.01% Brij-35, 10 mM MgCl2, and 1 mM EGTA). Recombinant GST-tagged JAK enzymes and a GFP-tagged STAT1 peptide substrate were obtained from Life Technologies.\nThe serially diluted compound was pre-incubated with each of the four JAK enzymes and the substrate in white 384-well microplates (Corning) at ambient temperature for lh. ATP was subsequently added to initiate the kinase reactions in 10 μL total volume, with 1% DMSO. […] The plates were allowed to incubate at ambient temperature for lh before being read on the EnVision reader (Perkin Elmer). Emission ratio signals (520 nm/495 nm) were recorded and utilized to calculate the percent inhibition values based on DMSO and background controls.\nFor dose-response analysis, percent inhibition data were plotted vs. compound concentrations, and IC50 values were determined from a 4-parameter robust fit model with the Prism software (GraphPad Software). Results were expressed as pIC50 (negative logarithm of IC50) and subsequently converted to pK1 (negative logarithm of dissociation constant, Ki) using the Cheng-Prusoff equation."}, "[1]": {"test": "Assay 12: Ocular pharmacokinetics in rabbit eyes", "assay_type": "in vivo, New Zealand white rabbits", "conditions": "for half-life: New Zealand white, vitreous, intravitreal solution formulation, 200 μg/eye and 50 μg/eye", "description": "The objective of this assay was to determine the pharmacokinetics of the compound 1 in rabbit ocular tissues.\nThe compound of the invention, 5-ethyl-2-fluoro-4-(3-(5-(1-methylpiperidin-4-yl)-4,5,6,7-tetrahydro-1H-imidazo[4,5-c]pyridin-2-yl)-1H-indazol-6-yl)phenol (1) was dissolved in either 10% 2-hydroxypropyl-β-cyclodextrin to attain a target concentration of 4 mg/mL or in purified water to attain a target concentration of 1 mg/mL . Bilateral intravitreal injection (50 μL/eye) of the solution of test compound was administered to New Zealand white rabbits in two dose groups, 200 μg/eye and 50 μg/eye, respectively, for the cyclodextrin and water vehicle formulations, respectively. The test compound concentration was measured in ocular tissues: vitreous, aqueous, retina/choroid and iris-ciliary body at pre-determined time points post injection (30 min, 4 h, 1 d, 3 d, 7 d, 14 d). Two rabbits (four eyes) were dosed for each time point.\nA suspension formulation was prepared by combining crystalline compound 1 of Example 2 with 0.5% hydroxypropyl methylcellulose (HPMC E5)+0.02% Tween 80 to attain a target concentration of 10 mg/mL. Bilateral intravitreal injection (50 μL/eye) of the suspension of test compound was administered to New Zealand white rabbits (500 μg/eye). The test compound concentration was measured in ocular tissues as in the […] at 30 min, 2 wks, 4 wks, 6 wks, and 8 wks post injection. […] The behavior is consistent with the solubility of compound 1 in the vehicle and the ocular pharmacokinetic behavior in the solution formulation. The drug concentration in plasma was measured and found to be at least 3 orders of magnitude lower than the concentration in vitreous tissue."}, "[2]": {"test_system": "IL-6 stimulated pSTAT3 in CD3+ T cells", "test": "Assay 6: Inhibition of IL-6 stimulated pSTAT3 in CD3+ T cells", "assay_type": "cell-based", "conditions": "T-cell; CD3+ T cells in human PBMCs, flow cytometry; read-out: pIC50, inhibition of IL-6 stimulated pSTAT3 (converted)", "description": "A protocol analogous to that of Assay 5 was used to determine the potency of the test compound for inhibition of interleuken-6 (IL-6) stimulated STAT3 phosphorylation.\nAn Alexa Fluor 647 conjugated anti-pSTAT3 antibody (pY705, Clone 4/P, BD Biosciences) was used to detect STAT3 phosphorylation."}},
  "note": "Read-outs that look alike come from different tables or passages of the source.",
  "data": [
    {"smiles": "CCc1cc(O)c(F)cc1-c1ccc2c(-c3nc4c([nH]3)CCN(C3CCN(C)CC3)C4)n[nH]c2c1", "note": "[Compound 1, 5-ethyl-2-fluoro-4-(3-(5-(1-methylpiperidin-4-yl)-4,5,6,7-tetrahydro-1H-imidazo[4,5-c]pyridin-2-yl)-1H-indazol-6-yl)phenol]", "values": [
      {"measurement": "Ki", "setting": "Tyk2", "value": 0.158, "unit": "nM"},
      {"measurement": "half-life", "setting": "[1]; read-out: half-life of initial decrease in concentration in vitreous tissue (converted)", "value": "~12", "unit": "h"},
      {"measurement": "half-life", "setting": "[1]; read-out: terminal half-life in vitreous tissue (converted)", "value": "~86.4", "unit": "h"},
      {"measurement": "clearance rate (linear decrease in drug concentration in the vitreous)", "setting": "[1]; intravitreal suspension of crystalline compound 1 of Example 2, 500 μg/eye, 30 min to 6 weeks", "value": "approximately 3 μg/mL/day"},
      {"measurement": "IC50", "setting": "[2]", "value": 39.8, "unit": "nM"}
    ]}
  ]
}
